Measurements reported in patent US6664372B1, “Azatide peptidomimetics” (The Scripps Research Institute, priority 1996, dated 2003).
Starred links: 1 amine or outer side, 2 acyl side, 3 side chain; linkers in the order of their positions; H or OH if unused. Non-standard residues stand in square brackets, D forms with d. No end group written: not given here. azaTyr = O=C(N(Cc1ccc(O)cc1)N[*:1])[*:2]; azaPhe = O=C(N(Cc1ccccc1)N[*:1])[*:2]; azaLeu = CC(C)CN(N[*:1])C(=O)[*:2]; azaGly = NNC(=O)O

System: anti-β-endorphin monoclonal antibody 3-E7 (IgG 3-E7)
Experiment: Azatide (16) competition ELISA for anti-β-endorphin monoclonal antibody
Type: binding, mouse
Conditions: at 1 mM, plate coated with Tyr-Gly-Gly-Phe-Leu-BSA conjugate

Which results are given for “Tyr^a-Gly^a-Gly^a-Phe^a-Leu^a.2CP3COOH ([azaTyr][azaGly][azaGly][azaPhe][azaLeu]; also: salt/adduct .2CP3COOH) [compound 16, Leu-enkephalin azatide mimetic; every α-carbon replaced by nitrogen]”?
competition with the natural peptide for 3-E7 (competition ELISA): non-ligand; competition with the natural peptide for 3-E7 (competition ELISA) (listed as azatide pentamer): no propensity to compete
